This is an account of results in patent publication US8796305B2 (Bayer Pharma Aktiengesellschaft, priority 2012, dated 2014).

The structures appear in SMILES notation. Counter-ions that a name gives are not always drawn.

In this assay the target is T1, recombinant guanylate cyclase reporter cell line (Rattus norvegicus, UniProt P19686+P20595).
T1 construct: expressed in transfected cells
T1 sequence (P20595 1-619): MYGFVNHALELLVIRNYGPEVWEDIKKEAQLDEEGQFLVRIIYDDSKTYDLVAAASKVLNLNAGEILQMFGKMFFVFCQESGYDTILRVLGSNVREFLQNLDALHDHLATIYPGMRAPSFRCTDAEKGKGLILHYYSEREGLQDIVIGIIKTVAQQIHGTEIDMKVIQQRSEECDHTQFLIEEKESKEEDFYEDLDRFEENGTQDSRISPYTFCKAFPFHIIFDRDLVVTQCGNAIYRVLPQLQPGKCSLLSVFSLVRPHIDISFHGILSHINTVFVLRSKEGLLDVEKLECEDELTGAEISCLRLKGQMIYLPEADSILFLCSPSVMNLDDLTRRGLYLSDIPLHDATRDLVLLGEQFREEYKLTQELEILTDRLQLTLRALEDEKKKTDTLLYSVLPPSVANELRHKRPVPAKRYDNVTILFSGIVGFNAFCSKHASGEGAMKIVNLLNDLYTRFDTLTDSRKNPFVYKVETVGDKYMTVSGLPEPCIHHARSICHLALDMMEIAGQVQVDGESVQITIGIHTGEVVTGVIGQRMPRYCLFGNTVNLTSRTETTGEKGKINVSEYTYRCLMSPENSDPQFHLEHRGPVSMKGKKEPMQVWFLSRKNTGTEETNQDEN
T1 sequence (P19686 1-690): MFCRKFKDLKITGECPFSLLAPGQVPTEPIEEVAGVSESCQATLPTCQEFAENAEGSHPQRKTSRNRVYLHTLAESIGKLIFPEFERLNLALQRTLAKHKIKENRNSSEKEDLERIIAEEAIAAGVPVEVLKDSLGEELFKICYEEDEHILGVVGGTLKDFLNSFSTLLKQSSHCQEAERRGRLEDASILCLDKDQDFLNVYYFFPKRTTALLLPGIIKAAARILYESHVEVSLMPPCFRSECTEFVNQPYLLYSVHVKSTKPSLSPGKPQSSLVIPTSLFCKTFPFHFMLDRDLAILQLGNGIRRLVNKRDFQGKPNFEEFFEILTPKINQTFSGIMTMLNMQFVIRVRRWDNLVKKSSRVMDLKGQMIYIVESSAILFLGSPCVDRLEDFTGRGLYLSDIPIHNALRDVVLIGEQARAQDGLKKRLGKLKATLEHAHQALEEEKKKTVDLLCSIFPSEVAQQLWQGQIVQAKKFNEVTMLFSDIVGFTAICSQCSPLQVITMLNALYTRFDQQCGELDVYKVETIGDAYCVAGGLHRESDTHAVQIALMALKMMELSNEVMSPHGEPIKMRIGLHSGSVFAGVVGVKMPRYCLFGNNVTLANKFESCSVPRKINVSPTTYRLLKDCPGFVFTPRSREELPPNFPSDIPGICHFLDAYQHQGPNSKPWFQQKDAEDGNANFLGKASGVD
In words: Action on recombinant guanylate cyclase reporter cell line. As to conditions: representative MEC values. The format is cell-based. As for the experimental part:
B-2. Action on Recombinant Guanylate Cyclase Reporter Cell Line
The cellular action of the compounds according to the invention is determined on a recombinant guanylate cyclase reporter cell line, as described in F. Wunder et al., Anal. Biochem. 339, 104-112 (2005).
Representative MEC values (MEC=minimal effective concentration) for the compounds according to the invention are shown in the following table: […]
Consider `COC(=O)C(NC(=O)c1c(C)nc2c(OCc3c(F)cccc3F)cccn12)c1ccc(F)cc1` (racemic) [Example 1, rac-Methyl [({8-[(2,6-difluorobenzyl)oxy]-2-methylimidazo[1,2-a]pyridin-3-yl}carbonyl)amino]-(4-fluorophenyl)acetate], for which the “MEC (minimal effective concentration)” value amounted to 0.3 µM.

For `COC(=O)C(NC(=O)c1c(C)nc2c(OCc3c(F)cccc3F)cccn12)c1ccc(Cl)cc1` (racemic) [Example 2, rac-Methyl (4-chlorophenyl)[({8-[(2,6-difluorobenzyl)oxy]-2-methylimidazo[1,2-a]pyridin-3-yl}carbonyl)amino]acetate], the “MEC (minimal effective concentration)” value is 0.3 µM.

For `COC(=O)CC(C)NC(=O)c1c(C)nc2c(OCc3c(F)cccc3F)cccn12` (racemic) [Example 4, rac-Methyl 3-[({8-[(2,6-difluorobenzyl)oxy]-2-methylimidazo[1,2-a]pyridin-3-yl}carbonyl)amino]butanoate], the “MEC (minimal effective concentration)” value was determined as 1.0 µM.

`CCCCC(NC(=O)c1c(C)nc2c(OCc3c(F)cccc3F)cccn12)C(=O)OC` (racemic) [Example 8, rac-Methyl N-({8-[(2,6-difluorobenzyl)oxy]-2-methylimidazo[1,2-a]pyridin-3-yl}carbonyl)norleucinate]: the “MEC (minimal effective concentration)” value was determined as 1.0 µM.

`COC(=O)C(CC(F)(F)F)NC(=O)c1c(C)nc2c(OCc3c(F)cccc3F)cccn12` (racemic) [Example 9, rac-Methyl 2-[({8-[(2,6-difluorobenzyl)oxy]-2-methylimidazo[1,2-a]pyridin-3-yl}carbonyl)amino]-4,4,4-trifluorobutanoate]: the “MEC (minimal effective concentration)” value was 3.0 µM.

Turning to `COC(=O)C(CCC(F)(F)F)NC(=O)c1c(C)nc2c(OCc3c(F)cccc3F)cccn12` (racemic) [Example 10, rac-Methyl N-({8-[(2,6-difluorobenzyl)oxy]-2-methylimidazo[1,2-a]pyridin-3-yl}carbonyl)-5,5,5-trifluoronorvalinate], the “MEC (minimal effective concentration)” value amounted to 1.0 µM.

On to `COC(=O)C(CCCC(F)(F)F)NC(=O)c1c(C)nc2c(OCc3c(F)cccc3F)cccn12` (racemic) [Example 11, rac-Methyl N-({8-[(2,6-difluorobenzyl)oxy]-2-methylimidazo[1,2-a]pyridin-3-yl}carbonyl)-6,6,6-trifluoronorleucinate], for which the “MEC (minimal effective concentration)” value is 0.3 µM.

In the case of `COC(=O)C(CCCC(F)(F)F)NC(=O)c1c(C)nc2c(OCc3c(F)cccc3F)cc(C)cn12` (racemic) [Example 12, rac-Methyl N-({8-[(2,6-difluorobenzyl)oxy]-2,6-dimethylimidazo[1,2-a]pyridin-3-yl}carbonyl)-6,6,6-trifluoronorleucinate], the “MEC (minimal effective concentration)” value came out at 0.3 µM.

`COC(=O)C(CCCC(F)(F)F)NC(=O)c1c(C)nc2c(OCc3c(F)cccc3F)cc(Cl)cn12` (racemic) [Example 13, rac-Methyl N-({6-chloro-8-[(2,6-difluorobenzyl)oxy]-2-methylimidazo[1,2-a]pyridin-3-yl}carbonyl)-6,6,6-trifluoronorleucinate]: the “MEC (minimal effective concentration)” value is 0.3 µM.

Consider `COC(=O)C(CCCC(F)(F)F)NC(=O)c1c(C)nc2c(OCc3c(F)ccc(F)c3F)cc(C)cn12` (racemic) [Example 14, rac-Methyl N-({2,6-dimethyl-8-[(2,3,6-trifluorobenzyl)oxy]imidazo[1,2-a]pyridin-3-yl}carbonyl)-6,6,6-trifluoronorleucinate], for which the “MEC (minimal effective concentration)” value was found to be 0.3 µM.

In the case of `COC(=O)CC(NC(=O)c1c(C)nc2c(OCc3c(F)cccc3F)cccn12)C(F)(F)F` (racemic) [Example 17, rac-Methyl 3-[({8-[(2,6-difluorobenzyl)oxy]-2-methylimidazo[1,2-a]pyridin-3-yl}carbonyl)-amino]-4,4,4-trifluorobutanoate], the “MEC (minimal effective concentration)” value worked out at 1.0 µM.

With `CCCCC(NC(=O)c1c(C)nc2c(OCc3c(F)cccc3F)cccn12)C(=O)OC` (single isomer, unassigned; enantiomer a) [Example 18, ent-Methyl N-({8-[(2,6-difluorobenzyl)oxy]-2-methylimidazo[1,2-a]pyridin-3-yl}carbonyl)-norleucinate (Enantiomer A)], the “MEC (minimal effective concentration)” value was 0.3 µM.

`CCCCC(NC(=O)c1c(C)nc2c(OCc3c(F)cccc3F)cccn12)C(=O)OC` (single isomer, unassigned; enantiomer b) [Example 19, ent-Methyl N-({8-[(2,6-difluorobenzyl)oxy]-2-methylimidazo[1,2-a]pyridin-3-yl}carbonyl)-norleucinate (Enantiomer B)]: the “MEC (minimal effective concentration)” value turned out to be 1.0 µM.

For the compound `Cc1nc2c(OCc3c(F)cccc3F)cccn2c1C(=O)N[C@@H]1CCOC1=O` [Example 3, 8-[(2,6-Difluorobenzyl)oxy]-2-methyl-N-[(3R)-2-oxotetrahydrofuran-3-yl]imidazo[1,2-a]pyridine-3-carboxamide], the “MEC (minimal effective concentration)” value was determined as 0.3 µM.

Regarding `COC(=O)C(C)(C)NC(=O)c1c(C)nc2c(OCc3c(F)cccc3F)cccn12` [Example 5, Methyl N-({8-[(2,6-difluorobenzyl)oxy]-2-methylimidazo[1,2-a]pyridin-3-yl}carbonyl)-2-methylalaninate], the “MEC (minimal effective concentration)” value is 0.3 µM.

Regarding `COC(=O)[C@@H](C)NC(=O)c1c(C)nc2c(OCc3c(F)cccc3F)cccn12` [Example 6, Methyl N-({8-[(2,6-difluorobenzyl)oxy]-2-methylimidazo[1,2-a]pyridin-3-yl}carbonyl)-D-alaninate], the “MEC (minimal effective concentration)” value turned out to be 3.0 µM.

For the compound `COC(=O)CCNC(=O)c1c(C)nc2c(OCc3c(F)cccc3F)cccn12` [Example 7, Methyl N-({8-[(2,6-difluorobenzyl)oxy]-2-methylimidazo[1,2-a]pyridin-3-yl}carbonyl)-beta-alaninate], the “MEC (minimal effective concentration)” value was 1.0 µM.

`COC(=O)CCCCCCCNC(=O)c1c(C)nc2c(OCc3c(F)cccc3F)cccn12` [Example 15, Methyl 8-[({8-[(2,6-difluorobenzyl)oxy]-2-methylimidazo[1,2-a]pyridin-3-yl}carbonyl)amino]octanoate]: the “MEC (minimal effective concentration)” value is 1.0 µM.

In the case of `COC(=O)CCCCCCCNC(=O)c1c(C)nc2c(OCC3CCCCC3)cccn12` [Example 16], the “MEC (minimal effective concentration)” value turned out to be 0.3 µM.

On to `Cc1nc2c(OCC3CCCCC3)cccn2c1C(=O)NCCCCCCCC(=O)O` [Example 20, 8-({[8-(Cyclohexylmethoxy)-2-methylimidazo[1,2-a]pyridin-3-yl]carbonyl}amino)octanoic acid], for which the “MEC (minimal effective concentration)” value stood at 0.065 µM.

As to `Cc1nc2c(OCc3c(F)cccc3F)cccn2c1C(=O)NCCCCCCCC(=O)O` [Example 21, 8-[({8-[(2,6-Difluorobenzyl)oxy]-2-methylimidazo[1,2-a]pyridin-3-yl}carbonyl)amino]octanoic acid], the “MEC (minimal effective concentration)” value amounted to 0.1 µM.

In the case of `Cc1nc2c(OCC3CCCCC3)cccn2c1C(=O)NCCCCCC(=O)O` [Example 22, 6-({[8-(Cyclohexylmethoxy)-2-methylimidazo[1,2-a]pyridin-3-yl]carbonyl}amino)hexanoic acid], the “MEC (minimal effective concentration)” value stood at 0.3 µM.

With `CCCC[C@H](NC(=O)c1c(C)nc2c(OCc3c(F)cccc3F)cccn12)C(=O)O` [Example 23, N-({8-[(2,6-Difluorobenzyl)oxy]-2-methylimidazo[1,2-a]pyridin-3-yl}carbonyl)norleucine hydrochloride], the “MEC (minimal effective concentration)” value amounted to 2.0 µM.

Take `COC(=O)[C@H]1CC[C@H](CNC(=O)c2c(C)nc3c(OCc4c(F)cccc4F)cc(C)cn23)CC1` [Example 24, Methyl trans-4-{[({8-[(2,6-difluorobenzyl)oxy]-2,6-dimethylimidazo[1,2-a]pyridin-3-yl}carbonyl)-amino]methyl}cyclohexanecarboxylate]: the “MEC (minimal effective concentration)” value amounted to 0.1 µM.
